# In publication PMC9898036, “VIP152 is a selective CDK9 inhibitor with pre-clinical in vitro and in vivo efficacy in chronic lymphocytic leukemia” (Leukemia, 2022):
# Tests used:
# MAP4K4 = MAP4K4 (Homo sapiens, UniProt O95819); assay: KINOMEscan: MAP4K4; assay type: binding; conditions: 1000 nM, read-out: Percent Control
# EGFR(E746-A750del) = EGFR(E746-A750del) (Homo sapiens, UniProt P00533, DEL746-750); assay: KINOMEscan: EGFR(E746-A750del); assay type: binding; conditions: 1000 nM, read-out: Percent Control
# CIT = CIT (Homo sapiens, UniProt O14578); assay: KINOMEscan: CIT; assay type: binding; conditions: 1000 nM, read-out: Percent Control
# CIT, sequence (O14578 whole entry): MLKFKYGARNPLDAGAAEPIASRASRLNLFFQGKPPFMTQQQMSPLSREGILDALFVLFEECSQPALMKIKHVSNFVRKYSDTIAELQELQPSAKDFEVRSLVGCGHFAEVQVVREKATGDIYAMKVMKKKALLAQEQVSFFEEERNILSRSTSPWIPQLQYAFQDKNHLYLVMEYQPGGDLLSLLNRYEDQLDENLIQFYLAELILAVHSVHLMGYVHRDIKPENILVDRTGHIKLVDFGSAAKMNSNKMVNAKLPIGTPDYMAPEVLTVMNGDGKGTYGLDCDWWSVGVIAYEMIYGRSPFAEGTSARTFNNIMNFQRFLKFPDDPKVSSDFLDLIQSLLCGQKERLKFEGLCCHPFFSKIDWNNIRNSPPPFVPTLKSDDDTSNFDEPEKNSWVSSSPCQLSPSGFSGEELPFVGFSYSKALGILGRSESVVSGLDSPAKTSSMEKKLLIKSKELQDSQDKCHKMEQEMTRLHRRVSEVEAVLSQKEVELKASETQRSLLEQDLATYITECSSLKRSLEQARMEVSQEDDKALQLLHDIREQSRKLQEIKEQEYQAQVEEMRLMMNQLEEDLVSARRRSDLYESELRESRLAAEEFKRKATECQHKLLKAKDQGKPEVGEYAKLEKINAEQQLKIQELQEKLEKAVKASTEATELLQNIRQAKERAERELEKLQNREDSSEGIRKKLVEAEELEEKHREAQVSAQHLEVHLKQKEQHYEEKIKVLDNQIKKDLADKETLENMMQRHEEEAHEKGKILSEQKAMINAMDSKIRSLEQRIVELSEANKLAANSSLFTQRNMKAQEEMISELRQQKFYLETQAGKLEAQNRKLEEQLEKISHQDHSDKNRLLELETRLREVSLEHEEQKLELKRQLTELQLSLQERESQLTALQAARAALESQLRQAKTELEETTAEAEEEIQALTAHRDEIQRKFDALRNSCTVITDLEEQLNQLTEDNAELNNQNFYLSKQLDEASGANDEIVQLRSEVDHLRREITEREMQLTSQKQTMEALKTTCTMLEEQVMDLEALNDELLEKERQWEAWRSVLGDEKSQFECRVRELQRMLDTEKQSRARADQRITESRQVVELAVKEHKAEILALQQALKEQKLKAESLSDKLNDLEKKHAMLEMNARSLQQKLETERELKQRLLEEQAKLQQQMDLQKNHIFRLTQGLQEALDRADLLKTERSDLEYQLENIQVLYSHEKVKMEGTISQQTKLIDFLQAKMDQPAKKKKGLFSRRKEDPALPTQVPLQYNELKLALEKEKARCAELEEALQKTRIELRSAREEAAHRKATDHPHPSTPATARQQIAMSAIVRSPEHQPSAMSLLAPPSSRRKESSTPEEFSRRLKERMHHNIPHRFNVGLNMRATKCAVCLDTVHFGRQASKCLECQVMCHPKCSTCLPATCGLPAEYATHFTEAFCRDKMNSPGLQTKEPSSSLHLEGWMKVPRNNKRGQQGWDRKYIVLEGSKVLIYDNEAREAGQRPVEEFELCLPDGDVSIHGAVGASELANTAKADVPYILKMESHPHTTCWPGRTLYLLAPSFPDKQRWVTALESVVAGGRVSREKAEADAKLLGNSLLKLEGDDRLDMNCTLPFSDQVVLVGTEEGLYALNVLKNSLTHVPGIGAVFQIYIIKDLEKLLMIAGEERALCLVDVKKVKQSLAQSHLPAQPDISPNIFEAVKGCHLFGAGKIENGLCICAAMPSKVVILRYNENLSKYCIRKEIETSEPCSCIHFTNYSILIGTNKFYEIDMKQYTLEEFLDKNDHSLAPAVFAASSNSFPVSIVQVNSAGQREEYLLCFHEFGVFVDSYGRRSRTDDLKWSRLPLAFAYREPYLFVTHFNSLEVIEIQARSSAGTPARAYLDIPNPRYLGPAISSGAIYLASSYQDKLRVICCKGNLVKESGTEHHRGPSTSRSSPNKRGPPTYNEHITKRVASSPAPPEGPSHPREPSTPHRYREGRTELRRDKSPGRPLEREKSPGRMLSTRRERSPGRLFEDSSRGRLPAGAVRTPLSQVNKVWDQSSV
# BTK = BTK (Homo sapiens, UniProt Q06187); assay: KINOMEscan: BTK; assay type: binding; conditions: 1000 nM, read-out: Percent Control
# BIKE = BIKE (Homo sapiens, UniProt Q9NSY1); assay: KINOMEscan: BIKE; assay type: binding; conditions: 1000 nM, read-out: Percent Control
# BIKE, sequence (Q9NSY1 whole entry): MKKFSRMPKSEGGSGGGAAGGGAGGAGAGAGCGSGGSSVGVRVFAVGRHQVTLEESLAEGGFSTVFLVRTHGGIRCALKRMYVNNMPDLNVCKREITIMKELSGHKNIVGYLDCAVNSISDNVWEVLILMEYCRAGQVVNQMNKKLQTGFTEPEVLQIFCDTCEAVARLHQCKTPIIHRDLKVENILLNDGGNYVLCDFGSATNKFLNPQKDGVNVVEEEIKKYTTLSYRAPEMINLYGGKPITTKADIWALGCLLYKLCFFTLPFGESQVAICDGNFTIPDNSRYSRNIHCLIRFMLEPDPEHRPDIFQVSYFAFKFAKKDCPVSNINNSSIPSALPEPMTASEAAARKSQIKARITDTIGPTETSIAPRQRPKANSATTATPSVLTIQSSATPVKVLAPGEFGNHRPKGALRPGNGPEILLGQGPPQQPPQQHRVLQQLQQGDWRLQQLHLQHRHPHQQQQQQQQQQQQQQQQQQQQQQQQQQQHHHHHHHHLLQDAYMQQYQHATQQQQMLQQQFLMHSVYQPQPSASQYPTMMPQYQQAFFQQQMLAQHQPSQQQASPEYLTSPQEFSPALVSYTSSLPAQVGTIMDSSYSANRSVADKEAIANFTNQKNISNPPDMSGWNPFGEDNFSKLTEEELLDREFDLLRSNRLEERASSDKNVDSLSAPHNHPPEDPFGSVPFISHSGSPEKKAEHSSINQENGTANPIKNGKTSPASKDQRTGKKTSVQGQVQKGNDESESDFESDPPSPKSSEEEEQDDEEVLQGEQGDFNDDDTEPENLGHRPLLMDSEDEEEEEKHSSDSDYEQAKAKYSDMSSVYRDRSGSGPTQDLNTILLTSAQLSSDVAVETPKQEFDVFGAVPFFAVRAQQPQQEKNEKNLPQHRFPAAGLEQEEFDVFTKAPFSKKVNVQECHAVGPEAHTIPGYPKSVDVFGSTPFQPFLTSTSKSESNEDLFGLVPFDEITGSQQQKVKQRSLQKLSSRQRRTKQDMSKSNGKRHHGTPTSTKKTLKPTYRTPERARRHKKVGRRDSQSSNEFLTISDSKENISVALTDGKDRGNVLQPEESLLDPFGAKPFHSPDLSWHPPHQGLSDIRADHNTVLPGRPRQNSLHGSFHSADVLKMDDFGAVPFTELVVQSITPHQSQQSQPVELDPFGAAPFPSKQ
# AXL = AXL (Homo sapiens, UniProt P30530); assay: KINOMEscan: AXL; assay type: binding; conditions: 1000 nM, read-out: Percent Control
# CSNK1A1L = CSNK1A1L (Homo sapiens, UniProt Q8N752); assay: KINOMEscan: CSNK1A1L; assay type: binding; conditions: 1000 nM, read-out: Percent Control
# [1] = tested on: treatment-naïve primary CLL samples; assay: Annexin V/propidium iodide flow cytometry; assay type: cell-based; conditions: Homo sapiens; 10 treatment-naïve samples; read-out: IC50 (cytotoxic activity)
# CDK8 = CDK8 (Homo sapiens, UniProt P49336); assay: KINOMEscan: CDK8; assay type: binding; conditions: 1000 nM, read-out: Percent Control
# EPHB4 = EPHB4 (Homo sapiens, UniProt P54760); assay: KINOMEscan: EPHB4; assay type: binding; conditions: 1000 nM, read-out: Percent Control
# LZK = LZK (Homo sapiens, UniProt O43283); assay: KINOMEscan: LZK; assay type: binding; conditions: 1000 nM, read-out: Percent Control
# GABAB1A = GABAB1A (Homo sapiens, UniProt Q9UBS5); assay: Eurofins Diversity Panel; assay type: binding; conditions: hum, Conc. 10 μM
# [2] = biological target: JAK1(JH2domain-pseudokinase) (Homo sapiens, UniProt P23458); assay: KINOMEscan: JAK1(JH2domain-pseudokinase); assay type: binding; conditions: 1000 nM, read-out: Percent Control
# Muscarinic M3 = Muscarinic M3 (Homo sapiens, UniProt P20309); assay: Eurofins Diversity Panel; assay type: binding; conditions: hum, Conc. 10 μM
# STK36 = STK36 (Homo sapiens, UniProt Q9NRP7); assay: KINOMEscan: STK36; assay type: binding; conditions: 100 nM, read-out: Percent Control
# STK36, sequence (Q9NRP7 whole entry): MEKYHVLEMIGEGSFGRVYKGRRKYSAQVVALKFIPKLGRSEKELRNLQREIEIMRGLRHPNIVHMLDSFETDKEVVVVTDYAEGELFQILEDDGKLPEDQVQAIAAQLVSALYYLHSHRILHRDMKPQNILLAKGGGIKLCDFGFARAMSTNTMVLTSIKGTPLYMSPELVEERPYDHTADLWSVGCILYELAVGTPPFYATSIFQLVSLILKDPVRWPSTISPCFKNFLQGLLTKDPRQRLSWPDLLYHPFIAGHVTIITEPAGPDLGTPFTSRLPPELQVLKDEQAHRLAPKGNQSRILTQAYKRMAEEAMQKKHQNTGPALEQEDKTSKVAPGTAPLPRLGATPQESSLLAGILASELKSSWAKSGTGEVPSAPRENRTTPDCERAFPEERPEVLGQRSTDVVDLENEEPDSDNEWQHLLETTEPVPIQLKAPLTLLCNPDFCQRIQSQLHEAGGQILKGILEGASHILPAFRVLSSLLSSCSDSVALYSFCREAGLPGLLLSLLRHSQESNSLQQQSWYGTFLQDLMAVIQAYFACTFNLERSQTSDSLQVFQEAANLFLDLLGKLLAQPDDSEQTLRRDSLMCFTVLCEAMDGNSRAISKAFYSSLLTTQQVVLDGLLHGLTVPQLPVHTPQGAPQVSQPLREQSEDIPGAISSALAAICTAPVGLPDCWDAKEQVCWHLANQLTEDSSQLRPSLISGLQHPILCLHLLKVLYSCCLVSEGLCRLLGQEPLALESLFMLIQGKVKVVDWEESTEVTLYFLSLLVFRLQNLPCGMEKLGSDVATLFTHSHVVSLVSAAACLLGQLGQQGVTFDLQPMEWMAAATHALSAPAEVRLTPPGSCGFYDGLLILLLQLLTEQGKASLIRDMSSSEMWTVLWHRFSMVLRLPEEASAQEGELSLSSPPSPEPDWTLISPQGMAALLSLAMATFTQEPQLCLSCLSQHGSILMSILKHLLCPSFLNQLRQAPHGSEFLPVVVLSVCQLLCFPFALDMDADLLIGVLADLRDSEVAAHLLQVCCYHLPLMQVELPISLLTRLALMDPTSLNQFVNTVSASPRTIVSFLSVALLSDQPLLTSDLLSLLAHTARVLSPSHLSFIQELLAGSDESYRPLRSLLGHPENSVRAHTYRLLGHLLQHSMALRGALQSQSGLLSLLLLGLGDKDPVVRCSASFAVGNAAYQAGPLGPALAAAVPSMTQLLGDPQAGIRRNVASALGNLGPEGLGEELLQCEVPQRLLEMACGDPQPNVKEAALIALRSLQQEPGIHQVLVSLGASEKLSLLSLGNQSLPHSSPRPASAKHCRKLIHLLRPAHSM
# CAMK2A = CAMK2A (Homo sapiens, UniProt Q9UQM7); assay: KINOMEscan: CAMK2A; assay type: binding; conditions: 1000 nM, read-out: Percent Control
# FGFR1 = FGFR1 (Homo sapiens, UniProt P11362); assay: KINOMEscan: FGFR1; assay type: binding; conditions: 1000 nM, read-out: Percent Control
# [3] = tested on: C57BL/6 J mice engrafted with Eµ-MTCP1 splenocytes; assay: Eµ-MTCP1 adoptive transfer murine CLL model; assay type: in vivo, mouse; conditions: 12.5mg/kg tail vein injection, every week
# Protocol: All animal studies were carried out under protocols approved by The Ohio State University Institutional Animal Care and Use Committee (IACUC). Previously, 1 × 10^6 splenocytes from Eµ-MTCP1 mice, which recently were described to mimic human CLL, were resuspended in PBS and injected via tail vein into male C57BL/6 J from The Jackson Laboratory. Mice were monitored for development of peripheral disease by flow cytometry, measuring the percentage of CD5^+/CD19^+ cells in peripheral blood. Complete in vivo methods may be found in the supplementary material.
# In vitro systems generally lack the full microenvironment that can lead to tumor cell resistance and survival. Next, we sought to assess the in vivo efficacy of VIP152 to better evaluate its potential clinical utility in patients with CLL. To accomplish this we used a novel transgenic model of CLL (Eµ-MTCP1 model) developed recently by our group that is characterized by CD5^+/CD19^+ and B220^Dim expansion in the blood. Splenocytes from diseased Eµ-MTCP1 mice were serially engrafted via tail vein injection and monitored for leukemia via weekly flow cytometry (Fig. 5A). Mice were randomized to vehicle versus VIP152 at the time blood disease was evident and treated every week until endpoint. […] Mice in the VIP152 treatment group had improved overall survival compared with vehicle with a median survival of 46 days vs 32 days respectively (Fig. 5D – p < 0.005). Following enrollment two mice had reduction in disease that was sustained below 10% for the duration of study and these mice were censored after 100 days upon which treatment was ceased. Two months following treatment cessation these mice succumbed to likely illness with evident splenomegaly. […]
# Transcriptase. cDNA was immediately taken for qPCR using TaqMan Fast Advanced Master Mix using […]
# Upon reaching 80% disease, these mice were euthanized and spleens were harvested. Splenocytes from a single donor were then used for the studies described here. 1 x 10^6 splenocytes were again injected via tail vein into male C57BL/6J mice and monitored via flow cytometry as previously described for development of disease as defined by ≥10% CD45+/CD5+/CD19+32. Upon reaching 10% disease, mice were randomly enrolled into one of two treatment arms: tail vein injection of 12.5mg/kg VIP152 dissolved in (30/10/60 v/v/v PEG400/EtOH/0.5% Tween-80 in water) or vehicle control.
# Flow Cytometry analysis of blood […]
# Anti-Mouse CD45R/B220 – cat. […] Data were analyzed using Kaluza Analysis Software (Beckman-Coulter v2.1).
# Mass spectra from all samples (N = 12) were converted to mzML with ProteoWizard and OpenMS (v 2.5.0)30,31. Features from converted files were detected with Biosaur and searched on the OpenMS platform with […]
# [4] = biological target: Androgen (Testosterone) AR (Rattus norvegicus, UniProt P15207); assay: Eurofins Diversity Panel; assay type: binding; conditions: Conc. 10 μM
# TAOK1 = TAOK1 (Homo sapiens, UniProt Q7L7X3); assay: KINOMEscan: TAOK1; assay type: binding; conditions: 100 nM, read-out: Percent Control
# DAPK1 = DAPK1 (Homo sapiens, UniProt P53355); assay: KINOMEscan: DAPK1; assay type: binding; conditions: 1000 nM, read-out: Percent Control
# MST3 = MST3 (Homo sapiens, UniProt Q9Y6E0); assay: KINOMEscan: MST3; assay type: binding; conditions: 1000 nM, read-out: Percent Control
# MST3, sequence (Q9Y6E0 whole entry): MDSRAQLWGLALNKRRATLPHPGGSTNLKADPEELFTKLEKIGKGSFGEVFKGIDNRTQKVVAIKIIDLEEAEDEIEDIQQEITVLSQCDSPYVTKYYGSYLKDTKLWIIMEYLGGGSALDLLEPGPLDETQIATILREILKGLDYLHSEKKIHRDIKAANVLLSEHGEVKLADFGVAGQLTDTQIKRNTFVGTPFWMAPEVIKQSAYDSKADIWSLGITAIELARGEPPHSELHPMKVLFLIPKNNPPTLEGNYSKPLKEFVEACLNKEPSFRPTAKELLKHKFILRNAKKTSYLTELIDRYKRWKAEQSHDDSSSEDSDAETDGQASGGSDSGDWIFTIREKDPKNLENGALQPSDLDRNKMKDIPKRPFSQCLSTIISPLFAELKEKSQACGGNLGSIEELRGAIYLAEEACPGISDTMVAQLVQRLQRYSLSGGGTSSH
# EPHA2 = EPHA2 (Homo sapiens, UniProt P29317); assay: KINOMEscan: EPHA2; assay type: binding; conditions: 1000 nM, read-out: Percent Control
compound,measurement,setting,value
COc1cc(F)ccc1-c1cc(Nc2cc(CS(C)(=N)=O)ccn2)ncc1F (centres unmarked) [VIP152],remaining binding at 1 µM,MAP4K4,44%
same,remaining binding at 1 µM,EGFR(E746-A750del),76%
same,remaining binding at 1 µM,CIT,43%
same,remaining binding at 1 µM,BTK,100%
same,remaining binding at 1 µM,BIKE,38%
same,remaining binding at 1 µM,AXL,50%
same,remaining binding at 1 µM,CSNK1A1L,92%
same,IC50,[1],< 100 nM
same,remaining binding at 1 µM,CDK8,93%
same,remaining binding at 1 µM,EPHB4,100%
same,remaining binding at 1 µM,LZK,100%
same,inhibition at 10 µM,GABAB1A,1%
same,remaining binding at 1 µM,[2],96%
same,inhibition at 10 µM,Muscarinic M3,3%
same,remaining binding at 0.1 µM,STK36,100%
same,remaining binding at 1 µM,CAMK2A,84%
same,remaining binding at 1 µM,FGFR1,83%
same,weight loss,[3],did not observe any weight loss
same,median survival,[3]; vehicle 32 days,46 days
same,CD5+/CD19+ disease burden in peripheral blood,[3]; vs vehicle,statistically significantly lower
same,spleen size and spleen disease burden at endpoint,[3]; vs vehicle,did not have significantly smaller spleens nor significant decrease in spleen disease burden
same,inhibition at 10 µM,[4],35%
same,remaining binding at 0.1 µM,TAOK1,92%
same,remaining binding at 1 µM,DAPK1,87%
same,remaining binding at 1 µM,MST3,94%
same,remaining binding at 1 µM,EPHA2,97%
